Assay results as given in publication PMC12508156, “Non-canonical dihydrolipoyl transacetylase promotes chemotherapy resistance via mitochondrial tetrahydrofolate signaling” (Nature Communications, 2025).
Several values for one entry are separate records, joined by “and”; a condition that tells them apart may be missing. Equal entries are not always repeated.

What was measured:
KB-3-1 cells = conditions: read-out: cisplatin IC50; parental KB-3-1 cells; cited from earlier work
Excerpt: The RNAi library contains 328 shRNA clones, and each gene was targeted by 2 ~ 8 clones (Fig. 1a). Eleven genes, including DLAT, were selected as unexplored lead hits with cisplatin-sensitizing potential and were further evaluated in A549^cisR, H1299, and KB-3-1^cisR, and two acetyltrans ...

HT-29 cells = assay: Apoptotic cell death (annexin V/PI staining); type: cell-based, human; conditions: Supple Fig 6B
Description: (§1) Cell viability was determined using the CellTiter-Glo Luminescent Cell Viability Assay. […] Subsequently, the cells were cultured in complete medium for an additional 10 days, and the resulting colonies were visualized by staining with crystal violet and quantified using ImageJ software. For cell cycle analysis, cells fixed with 70% ethanol were stained with RNase A (100 µg/mL) and propidium iodide (50 μg/ml) for 30 min at 37 °C, and DNA content distribution was measured using flow cytometry (BD Symphony A3) and analyzed with FlowJo software (v10.9). Apoptotic cell death was assessed via FITC-conjugated annexin V and propidium iodide staining.
(§2) Colon cancer cell lines, HCT116 (a) and HT-29 (b), were stably transduced with DLAT shRNA harboring lentivirus, followed by annexin V staining and CellTiter Glo Viability assay. Error bars represent SD and are from 3 independent biological replicates. P values were obtained by one-way ANOVA.
(§3) (1 picture or pasted object on this page, not shown here)

HCT116 cells = assay: Apoptotic cell death (annexin V/PI staining); type: cell-based, human; conditions: Supple Fig 6A
Description: as §1, §2, §3

RNA synthesis = assay: Global RNA synthesis (5-EU labeling); type: cell-based, human; set-up: unit not given here
Description: Cellular metabolic states were examined through various assays. To gauge the levels of total intracellular or mitochondrial reactive oxygen species (ROS), cells were stained with CM-H2DCFDA or mitoSOX, respectively. Intracellular H2O2, NADPH, acetyl-CoA, and GSH/GSSG ratios were quantified using commercial assay kits as listed in the Reagents. Intracellular ATP levels were determined utilizing the ATP bioluminescent somatic cell assay and normalized to the total protein concentrations. The de novo synthesized RNA and proteins were assessed in cancer cells using commercial assays following the manufacturer’s protocols. In brief, O-propargyl-puromycin or uridine analog, 5-EU, was applied to stop translation or modify RNA. Polypeptides or modified RNA were measured using fluorescent azide with Ex/Em at 494/521 nm. PDC activity was determined by measuring the reduction of NAD+ to NADH during the conversion of pyruvate into acetyl-CoA.

A549cisR cells = assay: Colony formation assay; type: cell-based, human; conditions: 2 μg/ml cisplatin 24 h, then 10 days, normalised, n=1-3: biological replicates
Description: as §1

KB-3-1cisR cells = assay: Colony formation assay; type: cell-based, human; conditions: 5 μg/ml cisplatin 24 h, then 10 days, normalised, n=1-3: biological replicates
Description: as §1

GSH/GSSG = GSH/GSSG ratio (GSH/GSSG-Glo); type: cell-based, human
[1] = test system: KB-3-1cisR xenograft tumors; assay: KB-3-1cisR xenograft tumor growth (volume, weight); type: in vivo, athymic nu/nu mice; set-up: unit not given here; conditions: cisplatin 5 mg/kg i.p. twice a week, endpoint, n=1-8: individual mice, listed as cis
Description: All animal procedures were conducted based on the protocol (DAR-PROTO-201700885) approved by the Emory University Institutional Animal Care and Use Committee. Female athymic nu/nu mice (Hsd:Athymic Nude-Foxn1nu, 6-week-old; Envigo) were housed under specific pathogen-free (SPF) conditions in the Emory University animal facility. […] Mice were subcutaneously injected into the flank with 1 × 10^6 KB-3-1^cisR cells with or without DLAT knockdown. […] Tumors were collected at the experimental endpoint, and tumor proliferation was assessed using Ki-67 IHC staining. The localization, penetration, and efficacy of DMp39 were monitored by assessing the acetyl-[…] levels in tumors and fluorescence imaging analysis using an IVIS imaging system. Drug-induced organ toxicities, including splenomegaly, liver damage, and kidney injury, were monitored by assessing spleen index, alanine transaminase activity, and cystatin C levels in plasma.

Structure (SMILES): N.N.[Cl][Pt][Cl] [cisplatin]
- IC50 (KB-3-1 cells): 8.4 µM
- Apoptotic death (HT-29 cells; HT-29, pLKO.1 control cells + cis, replicate n=2): 20
- Apoptotic death (HT-29 cells; HT-29, pLKO.1 control cells + cis, replicate n=3): 20.2
- Apoptotic death (HT-29 cells; HT-29, shDLAT cells + cis, replicate n=1): 20.2
- Apoptotic death (HT-29 cells; HT-29, shDLAT cells + cis, replicate n=2): 22.2
- Apoptotic death (HT-29 cells; HT-29, shDLAT cells + cis, replicate n=3): 22.9
- Apoptotic death (HCT116 cells; HCT116, pLKO.1 control cells + cis, replicate n=2): 17.9
- Apoptotic death (HCT116 cells; HCT116, shDLAT cells + cis, replicate n=2): 15.5
- Apoptotic death (HCT116 cells; HCT116, shDLAT cells + cis, replicate n=3): 18.3
- Global RNA synthase (RNA synthesis; A549cisR, pLKO.1, n=1 (Figure 3B)): 35.2
- Global RNA synthase (RNA synthesis; A549cisR, pLKO.1, n=2 (Figure 3B)): 34.2
- Global RNA synthase (RNA synthesis; A549cisR, pLKO.1, n=3 (Figure 3B)): 34.8
- Global RNA synthase (RNA synthesis; A549cisR, shDLAT, n=1 (Figure 3B)): 36.6
- Global RNA synthase (RNA synthesis; A549cisR, shDLAT, n=2 (Figure 3B)): 34
- Global RNA synthase (RNA synthesis; A549cisR, shDLAT, n=3 (Figure 3B)): 33
- Global RNA synthase (RNA synthesis; KB-3-1cisR, pLKO.1, n=1 (Figure 3B)): 34.8
- Global RNA synthase (RNA synthesis; KB-3-1cisR, pLKO.1, n=2 (Figure 3B)): 33.4
- Global RNA synthase (RNA synthesis; KB-3-1cisR, pLKO.1, n=3 (Figure 3B)): 32.4
- Global RNA synthase (RNA synthesis; KB-3-1cisR, shDLAT, n=1 (Figure 3B)): 33.6
- Global RNA synthase (RNA synthesis; KB-3-1cisR, shDLAT, n=2 (Figure 3B)): 31.4
- Global RNA synthase (RNA synthesis; KB-3-1cisR, shDLAT, n=3 (Figure 3B)): 31.6
- Colony formation assay (A549cisR cells; A549cisR pLKO.1): 1.111 and 0.9965 and 1.059
- Colony formation assay (A549cisR cells; A549cisR shDLAT #1): 0.545 and 0.5035 and 0.4723
- Colony formation assay (A549cisR cells; A549cisR shDLAT #2): 0.5398 and 0.5242 and 0.4931
- Colony formation assay (KB-3-1cisR cells; KB-3-1cisR pLKO.1): 0.9446 and 0.763 and 0.8564
- Colony formation assay (KB-3-1cisR cells; KB-3-1cisR shDLAT #1): 0.1843 and 0.1505 and 0.2102
- Colony formation assay (KB-3-1cisR cells; KB-3-1cisR shDLAT #2): 0.2154 and 0.1946 and 0.1246
- GSH/GSSG (GSH/GSSG; A549cisR cells, pLKO.1, n=1): 18.3651
- GSH/GSSG (GSH/GSSG; A549cisR cells, pLKO.1, n=3): 19.3614
- GSH/GSSG (GSH/GSSG; A549cisR cells, pLKO.1, n=4): 18.0395
- GSH/GSSG (GSH/GSSG; A549cisR cells, shDLAT, n=1): 8.402
- GSH/GSSG (GSH/GSSG; A549cisR cells, shDLAT, n=2): 8.901
- GSH/GSSG (GSH/GSSG; A549cisR cells, shDLAT, n=4): 10.9995
- GSH/GSSG (GSH/GSSG; A549cisR, CTL, sheet Figure 5G, replicate n=1): 25.1517
- GSH/GSSG (GSH/GSSG; A549cisR, CTL, sheet Figure 5G, replicate n=2): 26.0996
- GSH/GSSG (GSH/GSSG; A549cisR, CTL, sheet Figure 5G, replicate n=3): 23.5884
- GSH/GSSG (GSH/GSSG; A549cisR, shDLAT+Flag-MTHFD2 (K44Q), sheet Figure 5G, replicate n=1): 31.9457
- GSH/GSSG (GSH/GSSG; A549cisR, shDLAT+Flag-MTHFD2 (K44Q), sheet Figure 5G, replicate n=2): 29.1783
- GSH/GSSG (GSH/GSSG; A549cisR, shDLAT+Flag-MTHFD2 (K44Q), sheet Figure 5G, replicate n=3): 30.4077
- GSH/GSSG (GSH/GSSG; A549cisR, shDLAT+Flag-MTHFD2 (K44R), sheet Figure 5G, replicate n=1): 8.894
- GSH/GSSG (GSH/GSSG; A549cisR, shDLAT+Flag-MTHFD2 (K44R), sheet Figure 5G, replicate n=2): 10.2513
- GSH/GSSG (GSH/GSSG; A549cisR, shDLAT+Flag-MTHFD2 (K44R), sheet Figure 5G, replicate n=3): 9.633
- GSH/GSSG (GSH/GSSG; A549cisR, shDLAT, sheet Figure 5G, replicate n=1): 8.501
- GSH/GSSG (GSH/GSSG; A549cisR, shDLAT, sheet Figure 5G, replicate n=2): 9.861
- GSH/GSSG (GSH/GSSG; A549cisR, shDLAT, sheet Figure 5G, replicate n=3): 10.404
- GSH/GSSG (GSH/GSSG; KB-3-1cisR cells, pLKO.1, n=1): 14.1658
- GSH/GSSG (GSH/GSSG; KB-3-1cisR cells, pLKO.1, n=2): 13.5059
- GSH/GSSG (GSH/GSSG; KB-3-1cisR cells, pLKO.1, n=3): 14.1711
- GSH/GSSG (GSH/GSSG; KB-3-1cisR cells, pLKO.1, n=4): 12.6758
- GSH/GSSG (GSH/GSSG; KB-3-1cisR cells, shDLAT, n=3): 6.177
- GSH/GSSG (GSH/GSSG; KB-3-1cisR cells, shDLAT, n=4): 6.252
- GSH/GSSG (GSH/GSSG; KB-3-1cisR, CTL, sheet Figure 5G, replicate n=1): 15.3805
- GSH/GSSG (GSH/GSSG; KB-3-1cisR, CTL, sheet Figure 5G, replicate n=2): 14.4145
- GSH/GSSG (GSH/GSSG; KB-3-1cisR, CTL, sheet Figure 5G, replicate n=3): 16.7699
- GSH/GSSG (GSH/GSSG; KB-3-1cisR, shDLAT+Flag-MTHFD2 (K44Q), sheet Figure 5G, replicate n=1): 25.3381
- GSH/GSSG (GSH/GSSG; KB-3-1cisR, shDLAT+Flag-MTHFD2 (K44Q), sheet Figure 5G, replicate n=2): 26.6695
- GSH/GSSG (GSH/GSSG; KB-3-1cisR, shDLAT+Flag-MTHFD2 (K44Q), sheet Figure 5G, replicate n=3): 26.7501
- GSH/GSSG (GSH/GSSG; KB-3-1cisR, shDLAT+Flag-MTHFD2 (K44R), sheet Figure 5G, replicate n=1): 6.376
- GSH/GSSG (GSH/GSSG; KB-3-1cisR, shDLAT+Flag-MTHFD2 (K44R), sheet Figure 5G, replicate n=2): 6.273
- GSH/GSSG (GSH/GSSG; KB-3-1cisR, shDLAT+Flag-MTHFD2 (K44R), sheet Figure 5G, replicate n=3): 6.832
- GSH/GSSG (GSH/GSSG; KB-3-1cisR, shDLAT, sheet Figure 5G, replicate n=1): 7.027
- GSH/GSSG (GSH/GSSG; KB-3-1cisR, shDLAT, sheet Figure 5G, replicate n=2): 6.914
- GSH/GSSG (GSH/GSSG; KB-3-1cisR, shDLAT, sheet Figure 5G, replicate n=3): 7.456
- Tumor weight ([1]; KB-3-1cisR pLKO.1 xenograft): 0.88 and 0.77 and 0.52 and 1.65 and 1.63 and 1.39 and 1.43 and 1.01
- Tumor weight ([1]; KB-3-1cisR shDLAT #1 xenograft): 0.29 and 0.41 and 0.58 and 0.1 and 0.06 and 0.15 and 0.16 and 0.23
- Tumor weight ([1]; KB-3-1cisR shDLAT #2 xenograft): 0.63 and 0.5 and 0.66 and 0.02 and 0.08 and 0.19 and 0.34 and 0.36
